One assay concerns target protein. Conditions: cited from earlier work.
The target of a further assay is cathepsin B (Homo sapiens, UniProt P07858). As to the kind of experiment: inhibition of cathepsin B enzyme activity. Conditions: read-out: activity to inhibit cathepsin B, IC50. Format: biochemical. From the text: Persons skilled in the art can appropriately select the position to introduce the Raman label as well as the type of Raman label to introduce by considering the structure of the compound. Moreover, persons skilled in the art having general techniques in the field of organic synthesis can appropriately synthesize a Raman-labeled compound as the low-molecular-weight compound according to the present invention. This is explained with a specific example as follows. Persons skilled in the art can synthesize an AOMK derivative (hereinafter, also referred to as RAT8-AOMK) by Raman-labeling acyloxymethyl ketone (AOMK) (an inhibitor of cathepsin B) with alkyne using general techniques in the field of organic synthesis. The RAT8-AOMK binds to cathepsin B, so as to inhibit its enzyme activity. The activity of RAT8-AOMK to inhibit cathepsin B is represented by IC50=0.3 μM. RAT8-AOMK can be synthesized and obtained by reacting N-Boc-AOMK (IC50=0.05 μM) with 4-nitrophenyl-4-ethynylbenzyl carbonate. Acyloxymethyl ketone (AOMK) is known as a cysteine protease inhibitor. The principle thereof is that a cysteine residue of the active center of an enzyme protein is modified by AOMK, and thus activity as protease is diminished (see FIG. 24).

For 16F16, the “activity when modified with a fluorophore” value in the assay with target protein is listed as “loses its activity”.

The term IC50 denotes the concentration that gives 50% inhibition. Regarding `C#Cc1ccc(COC(=O)N[C@@H](Cc2ccccc2)C(=O)NCC(=O)COC(=O)c2c(C)cccc2C)cc1` [RAT8-AOMK], on cathepsin B, the IC50 worked out at 300 nM.

(Values after patent US10338078B2, “Method and apparatus for analyzing biomolecules using Raman spectroscopy” (Japan Science and Technology Agency, priority 2012, dated 2019).)
